The text below walks through data of the supplement of paper PMC10307832.

The first assay relates to LXF-289. Put plainly: relative viability (nuclei count vs DMSO), 5 days (fraction); higher = more cells survive. The note with it: first compound 8 µM. Summed up: (§1)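 Relative viability divides the nuclei count in treated wells by that in vehicle wells. Lung cancer cell lines were seeded in 1536-well plates, dosed by pin tool the next day, and fixed and stained after 5 days in one step with final 0.05% Triton X-100, 1% formaldehyde and 1 ug/ml Hoechst. Dosing was a single drug or a fixed anchor-drug dose plus five library-drug doses (not always all listed) in √10 steps, and values are medians of duplicate plates imaged at 4×.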
`Nc1cccc2c1CN(C1CCC(=O)NC1=O)C2=O` (centres undefined) [Lenalidomide] + Nc1ncn([C@H]2C[C@H](O)[C@@H](CO)O2)c(=O)n1 [Decitabine] (partner 2 µM) registered a relative viability of 0.335.

Take `Nc1cccc2c1CN(C1CCC(=O)NC1=O)C2=O` (centres undefined) [Lenalidomide] + Cc1nc(Nc2ncc(C(=O)Nc3c(C)cccc3Cl)s2)cc(N2CCN(CCO)CC2)n1 [Dasatinib] (partner 0.075 µM): the relative viability is 0.213.

In the case of `Nc1cccc2c1CN(C1CCC(=O)NC1=O)C2=O` (centres undefined) [Lenalidomide] + N=C(N)NC(=N)NCCc1ccccc1 [Phenformin] (partner 250 µM), the relative viability was 0.58.

The molecule `Nc1cccc2c1CN(C1CCC(=O)NC1=O)C2=O` (centres undefined) [Lenalidomide] + CC(=O)c1c(C)c2cnc(Nc3ccc(N4CCNCC4)cn3)nc2n(C2CCCC2)c1=O [Palbociclib] (partner 0.5 µM) displayed a relative viability of 0.668.

Another assay has as its system PC-14. The assay is described as above. The settings on record: first compound 0.253 µM. In outline: as §1
In the case of `Nc1cccc2c1CN(C1CCC(=O)NC1=O)C2=O` (centres undefined) [Lenalidomide] + CCNC(=O)c1noc(-c2cc(C(C)C)c(O)cc2O)c1-c1ccc(CN2CCOCC2)cc1 [Luminespib] (partner 0.01 µM), the relative viability came to 0.152.

For the molecule `Nc1cccc2c1CN(C1CCC(=O)NC1=O)C2=O` (centres undefined) [Lenalidomide] + Nc1ncn([C@H]2C[C@H](O)[C@@H](CO)O2)c(=O)n1 [Decitabine] (partner 2 µM), the relative viability came to 0.199.

The molecule `Nc1cccc2c1CN(C1CCC(=O)NC1=O)C2=O` (centres undefined) [Lenalidomide] + Cc1nc(Nc2ncc(C(=O)Nc3c(C)cccc3Cl)s2)cc(N2CCN(CCO)CC2)n1 [Dasatinib] (partner 0.075 µM) returned a relative viability of 0.236.

Turning to `Nc1cccc2c1CN(C1CCC(=O)NC1=O)C2=O` (centres undefined) [Lenalidomide] + N=C(N)NC(=N)NCCc1ccccc1 [Phenformin] (partner 250 µM), the relative viability was determined as 0.637.

For `Nc1cccc2c1CN(C1CCC(=O)NC1=O)C2=O` (centres undefined) [Lenalidomide] + CC(=O)c1c(C)c2cnc(Nc3ccc(N4CCNCC4)cn3)nc2n(C2CCCC2)c1=O [Palbociclib] (partner 0.5 µM), the relative viability was 0.541.

Still in this assay, the particulars now being: first compound 0.8 µM.
`Nc1cccc2c1CN(C1CCC(=O)NC1=O)C2=O` (centres undefined) [Lenalidomide] + CCNC(=O)c1noc(-c2cc(C(C)C)c(O)cc2O)c1-c1ccc(CN2CCOCC2)cc1 [Luminespib] (partner 0.01 µM) yielded a relative viability of 0.191.

Molecule `Nc1cccc2c1CN(C1CCC(=O)NC1=O)C2=O` (centres undefined) [Lenalidomide] + Nc1ncn([C@H]2C[C@H](O)[C@@H](CO)O2)c(=O)n1 [Decitabine] (partner 2 µM) displayed a relative viability of 0.189.

Consider `Nc1cccc2c1CN(C1CCC(=O)NC1=O)C2=O` (centres undefined) [Lenalidomide] + Cc1nc(Nc2ncc(C(=O)Nc3c(C)cccc3Cl)s2)cc(N2CCN(CCO)CC2)n1 [Dasatinib] (partner 0.075 µM), for which the relative viability worked out at 0.28.

The molecule `Nc1cccc2c1CN(C1CCC(=O)NC1=O)C2=O` (centres undefined) [Lenalidomide] + N=C(N)NC(=N)NCCc1ccccc1 [Phenformin] (partner 250 µM) had a relative viability of 0.454.

`Nc1cccc2c1CN(C1CCC(=O)NC1=O)C2=O` (centres undefined) [Lenalidomide] + CC(=O)c1c(C)c2cnc(Nc3ccc(N4CCNCC4)cn3)nc2n(C2CCCC2)c1=O [Palbociclib] (partner 0.5 µM) gave a relative viability of 0.533.

The assay is the same for the next values; noted with them: first compound 2.53 µM.
In turn, `Nc1cccc2c1CN(C1CCC(=O)NC1=O)C2=O` (centres undefined) [Lenalidomide] + CCNC(=O)c1noc(-c2cc(C(C)C)c(O)cc2O)c1-c1ccc(CN2CCOCC2)cc1 [Luminespib] (partner 0.01 µM) had a relative viability of 0.151.

Turning to `Nc1cccc2c1CN(C1CCC(=O)NC1=O)C2=O` (centres undefined) [Lenalidomide] + Nc1ncn([C@H]2C[C@H](O)[C@@H](CO)O2)c(=O)n1 [Decitabine] (partner 2 µM), the relative viability was determined as 0.24.

Molecule `Nc1cccc2c1CN(C1CCC(=O)NC1=O)C2=O` (centres undefined) [Lenalidomide] + Cc1nc(Nc2ncc(C(=O)Nc3c(C)cccc3Cl)s2)cc(N2CCN(CCO)CC2)n1 [Dasatinib] (partner 0.075 µM) had a relative viability of 0.281.

As to `Nc1cccc2c1CN(C1CCC(=O)NC1=O)C2=O` (centres undefined) [Lenalidomide] + N=C(N)NC(=N)NCCc1ccccc1 [Phenformin] (partner 250 µM), the relative viability came to 0.606.

As to `Nc1cccc2c1CN(C1CCC(=O)NC1=O)C2=O` (centres undefined) [Lenalidomide] + CC(=O)c1c(C)c2cnc(Nc3ccc(N4CCNCC4)cn3)nc2n(C2CCCC2)c1=O [Palbociclib] (partner 0.5 µM), the relative viability amounted to 0.6.

Still in this assay, the particulars now being: first compound 8 µM.
Molecule `Nc1cccc2c1CN(C1CCC(=O)NC1=O)C2=O` (centres undefined) [Lenalidomide] + CCNC(=O)c1noc(-c2cc(C(C)C)c(O)cc2O)c1-c1ccc(CN2CCOCC2)cc1 [Luminespib] (partner 0.01 µM) returned a relative viability of 0.133.

Molecule `Nc1cccc2c1CN(C1CCC(=O)NC1=O)C2=O` (centres undefined) [Lenalidomide] + Nc1ncn([C@H]2C[C@H](O)[C@@H](CO)O2)c(=O)n1 [Decitabine] (partner 2 µM) displayed a relative viability of 0.226.

Take `Nc1cccc2c1CN(C1CCC(=O)NC1=O)C2=O` (centres undefined) [Lenalidomide] + Cc1nc(Nc2ncc(C(=O)Nc3c(C)cccc3Cl)s2)cc(N2CCN(CCO)CC2)n1 [Dasatinib] (partner 0.075 µM): the relative viability came out at 0.304.

As to `Nc1cccc2c1CN(C1CCC(=O)NC1=O)C2=O` (centres undefined) [Lenalidomide] + N=C(N)NC(=N)NCCc1ccccc1 [Phenformin] (partner 250 µM), the relative viability was 0.548.

On to `Nc1cccc2c1CN(C1CCC(=O)NC1=O)C2=O` (centres undefined) [Lenalidomide] + CC(=O)c1c(C)c2cnc(Nc3ccc(N4CCNCC4)cn3)nc2n(C2CCCC2)c1=O [Palbociclib] (partner 0.5 µM), for which the relative viability turned out to be 0.685.

In a further assay the test system is NCI-H838. The assay is described as above. The note with it: first compound 0.253 µM. Summed up:
as §1
Take `Nc1cccc2c1CN(C1CCC(=O)NC1=O)C2=O` (centres undefined) [Lenalidomide] + CCNC(=O)c1noc(-c2cc(C(C)C)c(O)cc2O)c1-c1ccc(CN2CCOCC2)cc1 [Luminespib] (partner 0.01 µM): the relative viability amounted to 0.338.

Regarding `Nc1cccc2c1CN(C1CCC(=O)NC1=O)C2=O` (centres undefined) [Lenalidomide] + Nc1ncn([C@H]2C[C@H](O)[C@@H](CO)O2)c(=O)n1 [Decitabine] (partner 2 µM), the relative viability worked out at 0.483.

`Nc1cccc2c1CN(C1CCC(=O)NC1=O)C2=O` (centres undefined) [Lenalidomide] + Cc1nc(Nc2ncc(C(=O)Nc3c(C)cccc3Cl)s2)cc(N2CCN(CCO)CC2)n1 [Dasatinib] (partner 0.075 µM) returned a relative viability of 0.368.

With `Nc1cccc2c1CN(C1CCC(=O)NC1=O)C2=O` (centres undefined) [Lenalidomide] + N=C(N)NC(=N)NCCc1ccccc1 [Phenformin] (partner 250 µM), the relative viability turned out to be 0.545.

Take `Nc1cccc2c1CN(C1CCC(=O)NC1=O)C2=O` (centres undefined) [Lenalidomide] + CC(=O)c1c(C)c2cnc(Nc3ccc(N4CCNCC4)cn3)nc2n(C2CCCC2)c1=O [Palbociclib] (partner 0.5 µM): the relative viability was 0.172.
